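96-well plates; 48 h exposure; 5 concentrations. Endpoints by linear interpolation between flanking doses. Not reached: highest tested concentration assigned. Here, GI50 denotes the concentration required for 50% inhibition of growth. Definition used: TGI = concentration required for complete inhibition of growth.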

One test deals with RPMI-8226 leukemia. Put plainly: inhibition of tumour cell growth, NCI panel, 48 h.
Regarding `NC1(CCCCCCCCCCC(=O)O)CNCCNCCNCCNC1`, the TGI was > 100 µM.

Turning to `C1CN2N3CCCC23C1` (centres undefined), the TGI is > 100 µM.

Consider `CC[n+]1ccc2c(c1)C(=O)c1nccc3c1c-2nc1ccccc13`, for which the GI50 is 6490 nM and the TGI is 21.7 µM.

Turning to `CCCCCCCCCCCCOC1C(CNCC2OC3OC(C)(C)OC3C2NC(=O)Nc2ccc(C(=O)OCC)cc2)OC2OC(C)(C)OC21` (centres undefined), the GI50 was 2130 nM and the TGI was 4.53 µM.

For `NNC(=O)c1cnn(-c2ccnc3c(C(F)(F)F)cccc23)c1N`, the GI50 was > 100000 nM and the TGI is > 100 µM.

Consider `Cc1c(Cl)cccc1Nc1ncccc1C(=O)O`, for which the GI50 is 47700 nM and the TGI is > 100 µM.

`COc1ccc(CNC(=O)COc2ccc(/C=N/Nc3nc4ccccc4s3)cc2)cc1`: the GI50 is 2130 nM and the TGI is > 100 µM.

Take `COC(=O)c1c(OC)cccc1C(=O)O`: the TGI was > 100 µM.

For the compound `CC1=CCCC(OC(N)=O)C1` (centres undefined), the TGI is > 100 µM.

On to `c1ccc(-c2nnc(-c3nn(-c4ccccc4)c4nc5ccccc5nc34)o2)cc1`, for which the TGI was > 100 µM.

For the compound `Cc1c(C(=O)/C=C/c2cccc3ccccc23)[n+](=O)c2ccccc2n1[O-]`, the TGI worked out at 41.8 µM.

For `COc1cc([C@@H]2c3cc4c(cc3[C@@H](NC(=O)c3cccc([N+](=O)[O-])c3)C3COC(=O)[C@@H]32)OCO4)cc(OC)c1O` (some centres undefined), the TGI is > 22.1 µM.

Compound `CCCNC(=O)OCc1c(COC(=O)NCCC)c(-c2ccc(Cl)c(Cl)c2)n2c1CCC2` had a TGI of 24.4 µM.

`CN(C)c1ccc2c(c1)oc(=O)c1ccccc12` returned a TGI of 28.8 µM.

As for `C/C(=N\NC(N)=S)c1ccc(C)cc1C`, the TGI is > 100 µM.

Regarding `CN(C)CCNc1nc2ccccc2c2[nH]c3ccccc3c12`, the GI50 is 648 nM and the TGI turned out to be 1.97 µM.

`O=C(N/N=C/c1cccc(O)c1O)N/N=C/c1cccc(O)c1O` came in with a TGI of 76.8 µM.

Regarding `COc1cc2c(cc1OC)C1C=NC(C(=O)O)(C2)c2ccccc21` (centres undefined), the TGI was > 100 µM.

In the case of `CN(C)S(=O)(=O)Nc1ccccn1`, the TGI was > 100 µM.

Turning to `CCCCCCCCCCCCCCC1OC(=O)c2ccccc21` (centres undefined), the TGI is > 100 µM.

In turn, `CN(C)CCNC(=O)c1cccc2nc3c(Cl)cccc3nc12` came in with a TGI of 82.6 µM.

Another test has as its system SK-MEL-28 melanoma. Put plainly: inhibition of tumour cell growth, NCI panel, 48 h.
In the case of `NC1(CCCCCCCCCCC(=O)O)CNCCNCCNCCNC1`, the TGI was > 100 µM.

As for `C1CN2N3CCCC23C1` (centres undefined), the TGI was > 100 µM.

For `CC[n+]1ccc2c(c1)C(=O)c1nccc3c1c-2nc1ccccc13`, the GI50 was 1840 nM and the TGI is 7.64 µM.

On to `CCCCCCCCCCCCOC1C(CNCC2OC3OC(C)(C)OC3C2NC(=O)Nc2ccc(C(=O)OCC)cc2)OC2OC(C)(C)OC21` (centres undefined), for which the GI50 was 1970 nM and the TGI came to 4.3 µM.

`NNC(=O)c1cnn(-c2ccnc3c(C(F)(F)F)cccc23)c1N`: the GI50 is > 100000 nM and the TGI is > 100 µM.

As for `Cc1c(Cl)cccc1Nc1ncccc1C(=O)O`, the GI50 was > 100000 nM and the TGI was > 100 µM.

Consider `C#CC(C)(C)Oc1cc(O)c2c(=O)c3ccccc3n(C)c2c1`, for which the TGI is > 100 µM.

For the compound `COc1ccc(CNC(=O)COc2ccc(/C=N/Nc3nc4ccccc4s3)cc2)cc1`, the GI50 was 4350 nM and the TGI is > 100 µM.

For `c1ccc(-c2nnc(-c3nn(-c4ccccc4)c4nc5ccccc5nc34)o2)cc1`, the TGI is > 100 µM.

`O=[N+]([O-])c1ccc(NSc2ccccc2)cc1`: the TGI is > 100 µM.

`Cc1c(C(=O)/C=C/c2cccc3ccccc23)[n+](=O)c2ccccc2n1[O-]` returned a TGI of 26.6 µM.

Regarding `COc1cc([C@@H]2c3cc4c(cc3[C@@H](NC(=O)c3cccc([N+](=O)[O-])c3)C3COC(=O)[C@@H]32)OCO4)cc(OC)c1O` (some centres undefined), the TGI was > 43.8 µM.

`CN(C)c1ccc2c(c1)oc(=O)c1ccccc12` came in with a TGI of 34.3 µM.

As for `CN(C)CCNc1nc2ccccc2c2[nH]c3ccccc3c12`, the GI50 was 1980 nM and the TGI is 6.44 µM.

For the compound `O=C(N/N=C/c1cccc(O)c1O)N/N=C/c1cccc(O)c1O`, the TGI is > 100 µM.

In the case of `CN(C)S(=O)(=O)Nc1ccccn1`, the TGI was > 100 µM.

For `CCCCCCCCCCCCCCC1OC(=O)c2ccccc21` (centres undefined), the TGI was > 100 µM.

The compound `CN(C)CCNC(=O)c1cccc2nc3c(Cl)cccc3nc12` came in with a TGI of 15.9 µM.

For the compound `CC(C)(C)C1=NC(S)NC(CCC(=O)Nc2ccccc2[N+](=O)[O-])=C1` (centres undefined), the TGI was > 100 µM.

A further test concerns MOLT-4 leukemia. Put plainly: inhibition of tumour cell growth, NCI panel, 48 h.
`NC1(CCCCCCCCCCC(=O)O)CNCCNCCNCCNC1`: the TGI was > 100 µM.

For the compound `C1CN2N3CCCC23C1` (centres undefined), the TGI is > 100 µM.

`CC[n+]1ccc2c(c1)C(=O)c1nccc3c1c-2nc1ccccc13`: the GI50 was 1.27 µM and the TGI amounted to 7.31 µM.

On to `CCCCCCCCCCCCOC1C(CNCC2OC3OC(C)(C)OC3C2NC(=O)Nc2ccc(C(=O)OCC)cc2)OC2OC(C)(C)OC21` (centres undefined), for which the GI50 was 3.39 µM and the TGI was found to be 8.43 µM.

As to `NNC(=O)c1cnn(-c2ccnc3c(C(F)(F)F)cccc23)c1N`, the GI50 was > 100 µM and the TGI is > 100 µM.

Consider `Cc1c(Cl)cccc1Nc1ncccc1C(=O)O`, for which the GI50 was > 100 µM and the TGI is > 100 µM.

Take `C#CC(C)(C)Oc1cc(O)c2c(=O)c3ccccc3n(C)c2c1`: the TGI is > 100 µM.

Take `COc1ccc(CNC(=O)COc2ccc(/C=N/Nc3nc4ccccc4s3)cc2)cc1`: the GI50 was > 100 µM and the TGI was > 100 µM.

Consider `COC(=O)c1c(OC)cccc1C(=O)O`, for which the TGI was > 100 µM.

With `CC1=CCCC(OC(N)=O)C1` (centres undefined), the TGI is > 100 µM.

Turning to `c1ccc(-c2nnc(-c3nn(-c4ccccc4)c4nc5ccccc5nc34)o2)cc1`, the TGI came out at 71.6 µM.

Take `O=[N+]([O-])c1ccc(NSc2ccccc2)cc1`: the TGI was found to be 49.4 µM.

Values taken from PubChem BioAssay (NCI).
